Key:
Type in all cases: in vivo
Alopecurus japonicus = experiment: Weeding effect in post-emergence stage; settings: 720 g a.i./ha, 3 weeks after application
Source text: (§1) The activity level criteria for plant damage (i.e., growth control rate) are as follows:
(§2) The above growth control rates are fresh weight control rates.
(§3) Monocotyledonous and dicotyledonous weed seeds (Descurainia sophia, Capsella bursa-pastoris, Abutilon theophrasti, Galium aparine, Stellaria media, Lithospermum arvense, Rorippa indica, Alopecurus aequalis, Alopecurus japonicus, Eleusine indica, Beckmannia syzigachne, Sclerochloa dura, Phleum paniculatum, Veronica didyma, Bromus japonicus, Aegilops tauschii, Phalaris arundinacea, Amaranthus retroflexus, Chenopodiaceae, Commelina communis, Sonchus arvensis, Convolvulus arvensis, Cirsium setosum, Solanumnigrum, Acalypha australis, Digitaria sanguinalis, Echinochloa crusgalli, Setaria viridis, Setaria glauca, Leptochloa chinensis, Monochoria vaginalis, Sagittaria trifolia, Scirpus juncoides, Cyperus rotundus, Cyperus iria, Cyperus difformis, Fimbristylis, Portulaca oleracea, Xanthium sibiricum, Pharbitis nil, Conyza Canadensis, etc.) and major crop seeds (wheat, corn, rice, soybean, cotton, oilseed rape, millet, sorghum, potato, sesame, ricinus, etc.) were placed in plastic pots filled with soil, then covered with 0.5-2 cm of soil, allowed to grow in a good greenhouse environment. Two weeks after sowing, the test plants were treated in the 2-3 leaf stage. The tested compounds of the present invention were respectively dissolved in acetone, then added with Tween 80 and 1.5 liter/ha of emulsifiable concentrate of methyl oleate as synergist, diluted with a certain amount of water to obtain a solution of a certain concentration, and sprayed by a spray tower onto the plants. After the application, the plants were cultured for 3 weeks in the greenhouse, and then the experimental results of the weeding were recorded. The doses of the used compounds were 45, 90, 180, 360, 720 g a.i./ha, and the averages were obtained from three replicates.

Abutilon theophrasti = experiment: Weeding effect in post-emergence stage; settings: 720 g a.i./ha, 3 weeks after application
Source text: as §1, §2, §3

Digitaria sanguinalis = experiment: Weeding effect in post-emergence stage; settings: 720 g a.i./ha, 3 weeks after application
Source text: as §1, §2, §3

Leptochloa chinensis [1] = experiment: Weeding effect in post-emergence stage; settings: 720 g a.i./ha, 3 weeks after application
Source text: as §1, §2, §3

wheat [2] = experiment: Post-emergence stage, crop damage; settings: 720 g a.i./ha, 3 weeks after application
Source text: as §1, §2, §3

rice [3] = experiment: Post-emergence stage, crop damage; settings: 720 g a.i./ha, 3 weeks after application
Source text: as §1, §2, §3

weeds = experiment: Activity test of the compositions, soil sealing treatment; settings: read-out: Control effect (%) of B applied alone (B)
Summary of the method: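 Pre-emergence soil spray at 450 kg/ha, 0.3 MPa, applied 72 h after sowing pre-germinated seeds, 20 seeds per pot, 4 pots, 4 repeats; actives in acetone diluted with 0.10% Tween-80. Greenhouse, 20 to 30° C; surviving weed fresh weight measured 21 days after treatment.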

Echinochloa crusgalli = experiment: Weeding effect in pre-emergence stage; settings: 2 weeks
Source text: as §1, §2
(§4) Monocotyledonous and dicotyledonous weed seeds (Descurainia sophia, Capsella bursa-pastoris, Abutilon theophrasti, Galium aparine, Stellaria media, Lithospermum arvense, Rorippa indica, Alopecurus aequalis, Alopecurus japonicus, Eleusine indica, Beckmannia syzigachne, Sclerochloa dura, Phleum paniculatum, Veronica didyma, Bromus japonicus, Aegilops tauschii, Phalaris arundinacea, Amaranthus retroflexus, Chenopodiaceae, Commelina communis, Sonchus arvensis, Convolvulus arvensis, Cirsium setosum, Solanumnigrum, Acalypha australis, Digitaria sanguinalis, Echinochloa crusgalli, Setaria viridis, Setaria glauca, Leptochloa chinensis, Monochoria vaginalis, Sagittaria trifolia, Scirpus juncoides, Cyperus rotundus, Cyperus iria, Cyperus difformis, Fimbristylis, Portulaca oleracea, Xanthium sibiricum, Pharbitis nil, Conyza Canadensis, etc.) and major crop seeds (wheat, corn, rice, soybean, cotton, oilseed rape, millet, sorghum, potato, sesame, ricinus, etc.) were placed in plastic pots filled with soil, then covered with 0.5-2 cm of soil, allowed to grow in a good greenhouse environment. The test plants were treated on the day of sowing. The tested compounds of the present invention were respectively dissolved in acetone, then added with Tween 80, diluted with a certain amount of water to obtain a solution of a certain concentration, and sprayed by a spray tower onto the plants. After the application, the plants were cultured for 2 weeks in the greenhouse, and then the experimental results of the weeding were recorded. The doses of the used compounds were 3, 6, 12, 24, 48 g ai./mu (1 mu=1/15 ha), and the averages were obtained from three replicates.

Veronica didyma = experiment: Weeding effect in pre-emergence stage; settings: 2 weeks
Source text: as §1, §2, §4

Lolium perenne = experiment: Weeding effect in pre-emergence stage; settings: 2 weeks
Source text: as §1, §2, §4

Leptochloa chinensis [4] = experiment: Weeding effect in pre-emergence stage; settings: 2 weeks
Source text: as §1, §2, §4

Descurainia sophia = experiment: Weeding effect in pre-emergence stage; settings: 2 weeks
Source text: as §1, §2, §4

wheat [5] = experiment: Pre-emergence stage, crop damage; settings: 2 weeks
Source text: as §1, §2, §4

peanut = experiment: Pre-emergence stage, crop damage; settings: 48 g a.i./mu, 2 weeks
Source text: as §1, §2, §4

cotton = experiment: Pre-emergence stage, crop damage; settings: 2 weeks
Source text: as §1, §2, §4

rice [6] = experiment: Pre-emergence stage, crop damage; settings: 2 weeks
Source text: as §1, §2, §4

corn = experiment: Pre-emergence stage, crop damage; settings: 24 g a.i./mu, 2 weeks
Source text: as §1, §2, §4

soy bean = experiment: Pre-emergence stage, crop damage; settings: 2 weeks
Source text: as §1, §2, §4

[7] = tested on: Echinochloa crusgalli, Scirpus juncoides, Bidens tripartita L., Sagittaria trifolia; experiment: Tests on resistance of the collected weeds to pyrazosulfuron-ethyl; settings: regular doses; weed seeds collected from Heilongjiang Province of China
Source text: Note: The seeds of Echinochloa crusgalli, Scirpus juncoides and Bidens tripartita L., and Sagittaria trifolia were collected from Heilongjiang Province of China.

In the case of CC1(C)CON(Cc2ccc(Cl)cc2Cl)C1=O [Control compound A, bixlozone], the “weeding effect in post-emergence stage, activity level (growth control rate)” value (“weeding effect in post-emergence stage” for short) (Alopecurus japonicus) is reported as 3 (Level 3: growth control rate is greater than or equal to 40% and less than 60%), the “weeding effect in post-emergence stage” value (Abutilon theophrasti) is reported as 4 (Level 4: growth control rate is greater than or equal to 60% and less than 85%) and the “weeding effect in post-emergence stage” value (Digitaria sanguinalis) is reported as 3 (Level 3: growth control rate is greater than or equal to 40% and less than 60%). The “weeding effect in post-emergence stage” value (Leptochloa chinensis [1]) was 2 (Level 2: growth control rate is greater than or equal to 20% and less than 40%), the “plant damage level (growth control rate) on crop, post-emergence stage” value (wheat [2]) was 3 (Level 3: growth control rate is greater than or equal to 40% and less than 60%) and the “plant damage level (growth control rate) on crop, post-emergence stage” value (rice [3]) was 2 (Level 2: growth control rate is greater than or equal to 20% and less than 40%). The pest or weed control at 30 g/ha (weeds; Echinochloa crus-galli, 504 h, Echinochloa crusgalli, soil treatment (S), B at 2 g a.i./mu, 21 days) was 41.3%, the pest or weed control at 60 g/ha (weeds; Echinochloa crus-galli, 504 h, Echinochloa crusgalli, soil treatment (S), B at 4 g a.i./mu, 21 days) was 50.3% and the “weeding effect in pre-emergence stage, activity level (growth control rate)” value (“weeding effect in pre-emergence stage” below) (Echinochloa crusgalli; 3 g a.i./mu) was 7 (Level 7: growth control rate is greater than or equal to 70% and less than 80%). For the same molecule, the “weeding effect in pre-emergence stage” value (Echinochloa crusgalli; 6 g a.i./mu) was 9, the “weeding effect in pre-emergence stage” value (Echinochloa crusgalli; 12 g a.i./mu) was 9 and the “weeding effect in pre-emergence stage” value (Echinochloa crusgalli; 24 g a.i./mu) was 9. For the same molecule, the “weeding effect in pre-emergence stage” value (Veronica didyma; 6 g a.i./mu) was 8 (Level 8: growth control rate is greater than or equal to 80% and less than 100%), the “weeding effect in pre-emergence stage” value (Veronica didyma; 12 g a.i./mu) was 9 and the “weeding effect in pre-emergence stage” value (Veronica didyma; 24 g a.i./mu) was 9. The “weeding effect in pre-emergence stage” value (Lolium perenne; 6 g a.i./mu) was 2 (Level 2: growth control rate is greater than or equal to 15% and less than 30%), the “weeding effect in pre-emergence stage” value (Lolium perenne; 24 g a.i./mu) was 9 and the “weeding effect in pre-emergence stage” value (Leptochloa chinensis [4]; 3 g a.i./mu) was 6 (Level 6: growth control rate is greater than or equal to 60% and less than 70%). The “weeding effect in pre-emergence stage” value (Leptochloa chinensis [4]; 6 g a.i./mu) was 9, the “weeding effect in pre-emergence stage” value (Leptochloa chinensis [4]; 12 g a.i./mu) was 9 and the “weeding effect in pre-emergence stage” value (Leptochloa chinensis [4]; 24 g a.i./mu) was 9. For the same molecule, the “weeding effect in pre-emergence stage” value (Descurainia sophia; 3 g a.i./mu) was 4 (Level 4: growth control rate is greater than or equal to 40% and less than 50%), the “weeding effect in pre-emergence stage” value (Descurainia sophia; 6 g a.i./mu) was 4 (Level 4: growth control rate is greater than or equal to 40% and less than 50%) and the “weeding effect in pre-emergence stage” value (Descurainia sophia; 12 g a.i./mu) was 9. For the same molecule, the “weeding effect in pre-emergence stage” value (Descurainia sophia; 24 g a.i./mu) was 9, the “plant damage level (growth control rate) on crop, pre-emergence stage” value (shortened to “plant damage level … pre-emergence stage”) (wheat [5]; 6 g a.i./mu) was 1 (Level 1: growth control rate is greater than 0% and less than 15%) and the “plant damage level … pre-emergence stage” value (wheat [5]; 12 g a.i./mu) was 1 (Level 1: growth control rate is greater than 0% and less than 15%). For the same molecule, the “plant damage level … pre-emergence stage” value (wheat [5]; 24 g a.i./mu) was 2 (Level 2: growth control rate is greater than or equal to 15% and less than 30%), the “plant damage level … pre-emergence stage” value (peanut) was 1 (Level 1: growth control rate is greater than 0% and less than 15%) and the “plant damage level … pre-emergence stage” value (cotton; 12 g a.i./mu) was 1 (Level 1: growth control rate is greater than 0% and less than 15%). The “plant damage level … pre-emergence stage” value (cotton; 24 g a.i./mu) was 2 (Level 2: growth control rate is greater than or equal to 15% and less than 30%), the “plant damage level … pre-emergence stage” value (rice [6]; 6 g a.i./mu) was 1 (Level 1: growth control rate is greater than 0% and less than 15%) and the “plant damage level … pre-emergence stage” value (rice [6]; 12 g a.i./mu) was 2 (Level 2: growth control rate is greater than or equal to 15% and less than 30%). The “plant damage level … pre-emergence stage” value (rice [6]; 24 g a.i./mu) was 4 (Level 4: growth control rate is greater than or equal to 40% and less than 50%), the “plant damage level … pre-emergence stage” value (corn) was 2 (Level 2: growth control rate is greater than or equal to 15% and less than 30%) and the “plant damage level … pre-emergence stage” value (soy bean; 24 g a.i./mu) was 1 (Level 1: growth control rate is greater than 0% and less than 15%). For the same molecule, the “plant damage level … pre-emergence stage” value (soy bean; 48 g a.i./mu) was 2 (Level 2: growth control rate is greater than or equal to 15% and less than 30%).

CCOC(=O)c1cnn(C)c1S(=O)(=O)NC(=O)Nc1nc(OC)cc(OC)n1 [pyrazosulfuron-ethyl, reference compound] was tested, and the pest or weed control at 3.75 g/ha (weeds; Cyperus difformis, soil (S), B 0.25 g a.i./mu) was 44.8%, the pest or weed control at 7.5 g/ha (weeds; Cyperus difformis, soil (S), B 0.5 g a.i./mu) was 59.7% and the “response of the collected weeds to pyrazosulfuron-ethyl” value [7] was “resistant”.

From patent US20240327359A1, “3-ISOXAZOLIDINONE COMPOUND, PREPARATION METHOD, HERBICIDAL COMPOSITION AND APPLICATION THEREOF” (QINGDAO KINGAGROOT CHEMICAL COMPOUND CO., LTD., priority 2021, published 2024)
